CCN(CC)C(=S)SSC(=S)N(CC)CC
solubility (mole fraction)
Details	in THF	in acetonitrile	in dichloromethane	in ethanol	in ethyl acetate	in isobutanol	in isopropanol	in methanol	in n-butanol	in n-propanol
273.15 K	0.0618	0.0134	0.11	0.000903	0.00709	0.00101	0.000564	0.000896	0.00109	0.00101
278.15 K	0.0719	0.0174	0.118	0.00111	0.0101	0.00119	0.000733	0.00105	0.00155	0.00127
283.15 K	0.0825	0.024	0.13	0.00143	0.0143	0.00146	0.000981	0.00134	0.00216	0.00167
288.15 K	0.0942	0.0313	0.143	0.00192	0.0201	0.00198	0.00133	0.00172	0.0028	0.00229
293.15 K	0.111	0.041	0.159	0.00266	0.0275	0.00263	0.0018	0.00235	0.00375	0.00301
298.15 K	0.131	0.0558	0.175	0.00339	0.0405	0.0035	0.0026	0.00323	0.00518	0.00423
303.15 K	0.152	0.0793	0.202	0.00466	0.0571	0.0052	0.00346	0.0042	0.00715	0.00571
308.15 K	0.173	0.108	0.229	0.0063	0.0809	0.00779	0.0047	0.00541	0.0104	0.00797
313.15 K	0.198	0.141	0.263	0.00911	0.107	0.011	0.00651	0.00736	0.0151	0.0106
318.15 K	0.228	0.184	–	0.0131	0.143	0.0152	0.00964	0.0106	0.0208	0.0155
